The values that follow come from patent publication US20240083944A1 (priority 2021, published 2024).

Starred links: 1 amine or outer side, 2 acyl side, 3 side chain; linkers in the order of their positions; H or OH if unused. Positions of bridges follow the written chain, without caps; N, C: chain ends. Non-standard residues stand in square brackets, D forms with d. Chains are numbered I, II in the order given. X3 = O=C(CCCc1ccc(I)cc1)NCCOCCOCCOCCOCCOCCOCCOCCOCCOCCOCCn1cc(CCC(=O)NC(COCCC(=O)NCCOCCOCCOCCOCCOCCOCCOCCOCCOCCOCCn2cc(CCC(=O)[*:1])nn2)(COCCC(=O)NCCOCCOCCOCCOCCOCCOCCOCCOCCOCCOCCn2cc(CCC(=O)[*:2])nn2)COCCC(=O)NCCOCCOCCOCCOCCOCCOCCOCCOCCOCCOCCn2cc(CCC(=O)[*:3])nn2)nn1; X2 = O=C(CCOCCN(CCOCCC(=O)NCCOCCOCCOCCOCCOCCOCCOCCOCCOCCOCCn1cc(CCC(=O)[*:2])nn1)CCOCCC(=O)NCCOCCOCCOCCOCCOCCOCCOCCOCCOCCOCCn1cc(CCC(=O)[*:3])nn1)NCCOCCOCCOCCOCCOCCOCCOCCOCCOCCOCCn1cc(CCC(=O)[*:1])nn1; X1 = C(c1nc(C[*:2])nc(C[*:3])n1)[*:1]; hArg = N=C(N)NCCCC[C@H](N)C(=O)O; tBuAla = CC(C)(C)C[C@H](N)C(=O)O; Agb = N=C(N)NCC[C@H](N)C(=O)O

The subject of data set [1] is SARS-CoV-2 pseudotyped HIV-1 virions, B.1.1.7 (Alpha).
The test system of data set [2] is SARS-CoV-2. Put plainly: Mouse Efficacy Model. In kind it is in vivo, male K18-hACE2 mice. Particulars: 100 mg/kg (tid) for three days, mice infected with SARS-CoV-2.
Data set [3] in a line: Pharmacokinetic analysis in mouse. In kind it is in vivo. Particulars: 3 mg/kg; for half-life: in vivo. The text has this: In one embodiment, the multimeric binding complex additionally comprises a half-life extending moiety. References herein to half-life extending moieities refer to any moiety capable of extending the half-life of the resultant multimeric binding complex in vivo when compared to the half-life of said multimeric binding complex in the absence of said half-life extending moiety.

By IC50 is commonly meant the point on the concentration scale where inhibition reaches its midpoint. Read a high IC50 as weaker potency in that assay. In data set [1], “I: Ac-CPYVAG[Agb][dA]TCL[tBuAla]CK-NH2 / II: Ac-CPYVAG[Agb][dA]TCL[tBuAla]CK-NH2 / III: Ac-CPYVAG[Agb][dA]TCL[tBuAla]CK-NH2 (linker I:1-I:10-I:13, II:1-II:10-II:13, III:1-III:10-III:13 via X1; linker I:14-II:14-III:14 via X2) [BCY17021]” had an IC50 of 0.3 nM. In addition, the “total viral RNA in nasal turbinate” value in data set [2] (FIG. 4 (A)) is recorded as “reduction of total viral RNA in nasal turbinate”. In addition, the “subgenomic RNA in nasal turbinate” value in data set [2] (FIG. 4 (B)) is reported as “reduction of subgenomic RNA in nasal turbinate”. Besides, the “total viral RNA in lung” value in data set [2] (FIG. 4 (C)) is listed as “reduction of total viral RNA in lung”. The “subgenomic RNA in lung” value in data set [2] (FIG. 4 (D)) is on record as “reduction of subgenomic RNA in lung”.

As usually defined, the half-life is how long it takes for the measured level to halve. Read a high half-life as slow loss. As for “I: Ac-CPYVAG[hArg][dA]TCL[tBuAla]CK-NH2 / II: Ac-CPYVAG[hArg][dA]TCL[tBuAla]CK-NH2 / III: Ac-CPYVAG[hArg][dA]TCL[tBuAla]CK-NH2 (linker I:1-I:10-I:13, II:1-II:10-II:13, III:1-III:10-III:13 via X1; linker I:14-II:14-III:14 via X3) [BCY19602]”, the half-life improvement in data set [3] (BCY19602 versus BCY18208 (no half-life extending moiety)) was 10 fold. The substance also had a half-life in data set [3] of 3.1 h.

For “I: Ac-CPYVAG[hArg][dA]TCL[tBuAla]CK-NH2 / II: Ac-CPYVAG[hArg][dA]TCL[tBuAla]CK-NH2 / III: Ac-CPYVAG[hArg][dA]TCL[tBuAla]CK-NH2 (linker I:1-I:10-I:13, II:1-II:10-II:13, III:1-III:10-III:13 via X1; linker I:14-II:14-III:14 via X2) [BCY18208]”, in data set [3], the half-life is 0.3 h.
